Measurements as given in patent US5434182A (priority 1993, dated 1995).
Where “and” joins values, the source holds several entries; their conditions need not be identical. Equal values may be shown once. Read-outs that look alike come from different tables or passages of the source.

Tests used:
VSV [1] = experiment: microbe, parasite or virus in culture; format: cell-based, vesicular stomatitis virus; conditions: Vesicular stomatitis virus
Total White Blood Cells = experiment: Stability of white blood cells in whole human blood to added lipid; format: cell-based; design: unit not given here; conditions: 15 mM, control 6.4
Excerpt: Further testing has shown the effect of monoglyceride esters and ether on the total white blood cell concentration in whole human blood.

HSV-1 = experiment: microbe, parasite or virus in culture; format: cell-based, herpes simplex virus type 1 strain MacIntyre; conditions: Human alphaherpesvirus 1, 0.5 h; 0.5 mg/ml, 37° C., 30 min; read-out: Reduction of virus titer, HSV-1
Red Blood Cells = experiment: Stability of red blood cells in whole human blood to added monoglyceride; format: cell-based; conditions: 3 mg/ml
Excerpt: Effect of Added Monoglyceride on RBCs in Human Blood.

Group B streptococcus = experiment: Inactivation of bacteria by monoglycerides, Group B streptococcus; format: cell-based; conditions: 2 mg/ml, read-out: Reduction of bacterial concentration, Group B streptococcus
VSV [2] = experiment: microbe, parasite or virus in culture; format: cell-based, vesicular stomatitis virus; conditions: for Reduction in VSV titer: 10 mM sodium taurocholate, human plasma; for log reduction at 4000 µM / log reduction at 7500 µM / log reduction at 15000 µM: Vesicular stomatitis virus, read-out: Reduction in VSV titer
VSV [3] = experiment: microbe, parasite or virus in culture; format: cell-based, vesicular stomatitis virus strain Indiana; conditions: for minimal effective concentration: read-out: Lowest concentration causing ≥3.0 log10 reduction in virus titer
Solubility = format: physicochemical; conditions: vs 1-monodecanoyl-rac-glycerol
[4] = read-out: Reduction in VSV Titer, 7.5 mM, 0 mM sodium taurocholate, human serum
[5] = read-out: Reduction in VSV Titer, 7.5 mM, 2 mM sodium taurocholate, human serum
[6] = read-out: Reduction in VSV Titer, 7.5 mM, 4 mM sodium taurocholate, human serum
[7] = read-out: Reduction in VSV Titer, 7.5 mM, 6 mM sodium taurocholate, human serum
[8] = read-out: Reduction in VSV Titer, 7.5 mM, 8 mM sodium taurocholate, human serum
[9] = read-out: Reduction in VSV Titer, 7.5 mM, 10 mM sodium taurocholate, human serum
[10] = read-out: Reduction in VSV Titer, 7.5 mM, 12 mM sodium taurocholate, human serum
[11] = Vesicular stomatitis virus, 0.5 h
[12] = Vesicular stomatitis virus, 0.5 h, read-out: Reduction of virus titer, VSV

SMILES	log reduction at 7500 µM (VSV [1]; [4])	log reduction at 7500 µM (VSV [1]; [5])	log reduction at 7500 µM (VSV [1]; [6])	log reduction at 7500 µM (VSV [1]; [7])	log reduction at 7500 µM (VSV [1]; [8])	log reduction at 7500 µM (VSV [1]; [9])	log reduction at 7500 µM (VSV [1]; [10])	Total White Blood Cells (Total White Blood Cells)	Reduction in VSV titer (VSV [2]; 4 mM) [log10]	Reduction in VSV titer (VSV [2]; 7.5 mM) [log10]	Reduction in VSV titer (VSV [2]; 15 mM) [log10]	log reduction at 4000 µM (VSV [2])	log reduction at 7500 µM (VSV [2])	log reduction at 15000 µM (VSV [2])	minimal effective concentration (VSV [3]; [11])	also measured
CCCCCCCCCC(=O)OCC(O)CO (racemic) [Monocaprin (10:0), 1-Monodecanoyl-rac-glycerol]	1	≥ 5	≥ 5	≥ 5	≥ 5	≥ 5	≥ 5	0.7	1.0	≥ 4.0	≥ 4.0	0	1	≥ 4	500 µg/mL and 2000 µM	log reduction at 500 µg/mL (HSV-1): ≥ 3.7; lysis of RBCs in whole blood (Red Blood Cells): does not lyse RBCs in whole blood; log reduction at 2000 µg/mL (Group B streptococcus): 4.5; log reduction at 500 µg/mL (VSV [3]; [12]): ≥ 4; active concentration relative to corresponding free acids (VSV [3]; monoglyceride vs free acid): ten times lower
CCCCCCCC(=O)OCC(O)CO (racemic) [Monocaprylin (8:0), 1-Monocapryloyl-rac-glycerol]	≥ 1	≥ 3	4	≥ 5	≥ 5	≥ 5	≥ 5	2.4	2.0	≥ 4.0	≥ 4.0	0	1	2	2000 µg/mL and 9000 µM	log reduction at 2000 µg/mL (VSV [3]; [12]): ≥ 4; solubility in words (Solubility): more soluble
